Assay results taken from patent US12643871B2, “Aryl formamide compound containing chiral sulfur oxide or salt thereof, preparation method, herbicidal composition and use thereof” (Qingdao Kingagroot Chemical Compound Co., Ltd., priority 2019, dated 2026).

Columns and labels:
Assay in all cases: Weeding effect in post-emergence stage
Format in all cases: in vivo
Settings in all cases: 250 g/ha; 2 leaf stage; 15 days after application; fresh weight control rate
Echinochloa crusgali = system: Echinochloa crusgali
How it was run: (§1)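 Reported levels reflect fresh weight growth control rate banded 0 (<5%) through 5 (>85%), averaged over three repetitions. Treatment: foliar spray of 2-leaf-stage greenhouse plants at 15 to 500 g/ha, with 1.5 liter/ha methyl oleate synergist; assessment 15 days after application.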

Digitaria sanguinalis = system: Digitaria sanguinalis
How it was run: as §1

Setaria viridis = system: Setaria viridis
How it was run: as §1

Abutilon theophrasti = system: Abutilon theophrasti
How it was run: as §1

Amaranthus retroflexus = system: Amaranthus retroflexus
How it was run: as §1

COc1c(C(=O)Nc2nnc(C)o2)ccc(C(F)(F)F)c1[S@+]([O-])CCCC(F)(F)F [Compound 326]
weeding effect in post-emergence stage, activity level (growth control rate), Echinochloa crusgali (Echinochloa crusgali): 5 (Level 5: growth control rate is above 85%)
weeding effect in post-emergence stage, activity level (growth control rate), Digitaria sanguinalis (Digitaria sanguinalis): 5 (Level 5: growth control rate is above 85%)
weeding effect in post-emergence stage, activity level (growth control rate), Setaria viridis (Setaria viridis): 5 (Level 5: growth control rate is above 85%)
weeding effect in post-emergence stage, activity level (growth control rate), Abutilon theophrasti (Abutilon theophrasti): 5 (Level 5: growth control rate is above 85%)
weeding effect in post-emergence stage, activity level (growth control rate), Amaranthus retroflexus (Amaranthus retroflexus): 5 (Level 5: growth control rate is above 85%)

COc1c(C(=O)Nc2nnc(C)o2)ccc(C(F)(F)F)c1[S@@+]([O-])C(F)(F)C(F)(F)F [Compound 327]
weeding effect in post-emergence stage, activity level (growth control rate), Echinochloa crusgali (Echinochloa crusgali): 5 (Level 5: growth control rate is above 85%)
weeding effect in post-emergence stage, activity level (growth control rate), Digitaria sanguinalis (Digitaria sanguinalis): 5 (Level 5: growth control rate is above 85%)
weeding effect in post-emergence stage, activity level (growth control rate), Setaria viridis (Setaria viridis): 5 (Level 5: growth control rate is above 85%)
weeding effect in post-emergence stage, activity level (growth control rate), Abutilon theophrasti (Abutilon theophrasti): 5 (Level 5: growth control rate is above 85%)
weeding effect in post-emergence stage, activity level (growth control rate), Amaranthus retroflexus (Amaranthus retroflexus): 5 (Level 5: growth control rate is above 85%)

COc1c(C(=O)Nc2nnc(C)o2)ccc(C(F)(F)F)c1[S@@+]([O-])C(F)(F)C(F)(F)C(F)(F)F [Compound 328]
weeding effect in post-emergence stage, activity level (growth control rate), Echinochloa crusgali (Echinochloa crusgali): 5 (Level 5: growth control rate is above 85%)
weeding effect in post-emergence stage, activity level (growth control rate), Digitaria sanguinalis (Digitaria sanguinalis): 5 (Level 5: growth control rate is above 85%)
weeding effect in post-emergence stage, activity level (growth control rate), Setaria viridis (Setaria viridis): 5 (Level 5: growth control rate is above 85%)
weeding effect in post-emergence stage, activity level (growth control rate), Abutilon theophrasti (Abutilon theophrasti): 5 (Level 5: growth control rate is above 85%)
weeding effect in post-emergence stage, activity level (growth control rate), Amaranthus retroflexus (Amaranthus retroflexus): 5 (Level 5: growth control rate is above 85%)

COc1c(C(=O)Nc2nnc(C)o2)ccc(C(F)(F)F)c1[S@+]([O-])CCC(F)(F)C(F)(F)F [Compound 329]
weeding effect in post-emergence stage, activity level (growth control rate), Echinochloa crusgali (Echinochloa crusgali): 5 (Level 5: growth control rate is above 85%)
weeding effect in post-emergence stage, activity level (growth control rate), Digitaria sanguinalis (Digitaria sanguinalis): 5 (Level 5: growth control rate is above 85%)
weeding effect in post-emergence stage, activity level (growth control rate), Setaria viridis (Setaria viridis): 5 (Level 5: growth control rate is above 85%)
weeding effect in post-emergence stage, activity level (growth control rate), Abutilon theophrasti (Abutilon theophrasti): 5 (Level 5: growth control rate is above 85%)
weeding effect in post-emergence stage, activity level (growth control rate), Amaranthus retroflexus (Amaranthus retroflexus): 5 (Level 5: growth control rate is above 85%)

COc1c(C(=O)Nc2nnc(C)o2)ccc(C(F)(F)F)c1[S@@+]([O-])C(F)(C(F)(F)F)C(F)(F)F [Compound 330]
weeding effect in post-emergence stage, activity level (growth control rate), Echinochloa crusgali (Echinochloa crusgali): 5 (Level 5: growth control rate is above 85%)
weeding effect in post-emergence stage, activity level (growth control rate), Digitaria sanguinalis (Digitaria sanguinalis): 5 (Level 5: growth control rate is above 85%)
weeding effect in post-emergence stage, activity level (growth control rate), Setaria viridis (Setaria viridis): 5 (Level 5: growth control rate is above 85%)
weeding effect in post-emergence stage, activity level (growth control rate), Abutilon theophrasti (Abutilon theophrasti): 5 (Level 5: growth control rate is above 85%)
weeding effect in post-emergence stage, activity level (growth control rate), Amaranthus retroflexus (Amaranthus retroflexus): 5 (Level 5: growth control rate is above 85%)

COc1c(C(=O)Nc2nnc(C)o2)ccc(C(F)(F)F)c1[S@+]([O-])CCC(F)(C(F)(F)F)C(F)(F)F [Compound 331]
weeding effect in post-emergence stage, activity level (growth control rate), Echinochloa crusgali (Echinochloa crusgali): 5 (Level 5: growth control rate is above 85%)
weeding effect in post-emergence stage, activity level (growth control rate), Digitaria sanguinalis (Digitaria sanguinalis): 5 (Level 5: growth control rate is above 85%)
weeding effect in post-emergence stage, activity level (growth control rate), Setaria viridis (Setaria viridis): 5 (Level 5: growth control rate is above 85%)
weeding effect in post-emergence stage, activity level (growth control rate), Abutilon theophrasti (Abutilon theophrasti): 5 (Level 5: growth control rate is above 85%)
weeding effect in post-emergence stage, activity level (growth control rate), Amaranthus retroflexus (Amaranthus retroflexus): 5 (Level 5: growth control rate is above 85%)

COc1c(C(=O)Nc2nnc(C)o2)ccc(C(F)(F)F)c1[S@+]([O-])CCCl [Compound 332]
weeding effect in post-emergence stage, activity level (growth control rate), Echinochloa crusgali (Echinochloa crusgali): 5 (Level 5: growth control rate is above 85%)
weeding effect in post-emergence stage, activity level (growth control rate), Digitaria sanguinalis (Digitaria sanguinalis): 5 (Level 5: growth control rate is above 85%)
weeding effect in post-emergence stage, activity level (growth control rate), Setaria viridis (Setaria viridis): 5 (Level 5: growth control rate is above 85%)
weeding effect in post-emergence stage, activity level (growth control rate), Abutilon theophrasti (Abutilon theophrasti): 5 (Level 5: growth control rate is above 85%)
weeding effect in post-emergence stage, activity level (growth control rate), Amaranthus retroflexus (Amaranthus retroflexus): 5 (Level 5: growth control rate is above 85%)

COc1c(C(=O)Nc2nnc(C)o2)ccc(C(F)(F)F)c1[S@+]([O-])CCCCl [Compound 333]
weeding effect in post-emergence stage, activity level (growth control rate), Echinochloa crusgali (Echinochloa crusgali): 5 (Level 5: growth control rate is above 85%)
weeding effect in post-emergence stage, activity level (growth control rate), Digitaria sanguinalis (Digitaria sanguinalis): 5 (Level 5: growth control rate is above 85%)
weeding effect in post-emergence stage, activity level (growth control rate), Setaria viridis (Setaria viridis): 5 (Level 5: growth control rate is above 85%)
weeding effect in post-emergence stage, activity level (growth control rate), Abutilon theophrasti (Abutilon theophrasti): 5 (Level 5: growth control rate is above 85%)
weeding effect in post-emergence stage, activity level (growth control rate), Amaranthus retroflexus (Amaranthus retroflexus): 5 (Level 5: growth control rate is above 85%)

COc1c(C(=O)Nc2nnc(C)o2)ccc(C(F)(F)F)c1[S@+]([O-])CCO [Compound 334]
weeding effect in post-emergence stage, activity level (growth control rate), Echinochloa crusgali (Echinochloa crusgali): 5 (Level 5: growth control rate is above 85%)
weeding effect in post-emergence stage, activity level (growth control rate), Digitaria sanguinalis (Digitaria sanguinalis): 5 (Level 5: growth control rate is above 85%)
weeding effect in post-emergence stage, activity level (growth control rate), Setaria viridis (Setaria viridis): 5 (Level 5: growth control rate is above 85%)
weeding effect in post-emergence stage, activity level (growth control rate), Abutilon theophrasti (Abutilon theophrasti): 5 (Level 5: growth control rate is above 85%)
weeding effect in post-emergence stage, activity level (growth control rate), Amaranthus retroflexus (Amaranthus retroflexus): 5 (Level 5: growth control rate is above 85%)

COc1c(C(=O)Nc2nnc(C)o2)ccc(C(F)(F)F)c1[S@+]([O-])CCCO [Compound 335]
weeding effect in post-emergence stage, activity level (growth control rate), Echinochloa crusgali (Echinochloa crusgali): 5 (Level 5: growth control rate is above 85%)
weeding effect in post-emergence stage, activity level (growth control rate), Digitaria sanguinalis (Digitaria sanguinalis): 5 (Level 5: growth control rate is above 85%)
weeding effect in post-emergence stage, activity level (growth control rate), Setaria viridis (Setaria viridis): 5 (Level 5: growth control rate is above 85%)
weeding effect in post-emergence stage, activity level (growth control rate), Abutilon theophrasti (Abutilon theophrasti): 5 (Level 5: growth control rate is above 85%)
weeding effect in post-emergence stage, activity level (growth control rate), Amaranthus retroflexus (Amaranthus retroflexus): 5 (Level 5: growth control rate is above 85%)

COc1c(C(=O)Nc2nnc(C)o2)ccc(C(F)(F)F)c1[S@+]([O-])CC(C)O (some centres unmarked) [Compound 336]
weeding effect in post-emergence stage, activity level (growth control rate), Echinochloa crusgali (Echinochloa crusgali): 5 (Level 5: growth control rate is above 85%)
weeding effect in post-emergence stage, activity level (growth control rate), Digitaria sanguinalis (Digitaria sanguinalis): 5 (Level 5: growth control rate is above 85%)
weeding effect in post-emergence stage, activity level (growth control rate), Setaria viridis (Setaria viridis): 5 (Level 5: growth control rate is above 85%)
weeding effect in post-emergence stage, activity level (growth control rate), Abutilon theophrasti (Abutilon theophrasti): 5 (Level 5: growth control rate is above 85%)
weeding effect in post-emergence stage, activity level (growth control rate), Amaranthus retroflexus (Amaranthus retroflexus): 5 (Level 5: growth control rate is above 85%)

COc1c(C(=O)Nc2nnc(C)o2)ccc(C(F)(F)F)c1[S@+]([O-])CC#N [Compound 337]
weeding effect in post-emergence stage, activity level (growth control rate), Echinochloa crusgali (Echinochloa crusgali): 5 (Level 5: growth control rate is above 85%)
weeding effect in post-emergence stage, activity level (growth control rate), Digitaria sanguinalis (Digitaria sanguinalis): 5 (Level 5: growth control rate is above 85%)
weeding effect in post-emergence stage, activity level (growth control rate), Setaria viridis (Setaria viridis): 5 (Level 5: growth control rate is above 85%)
weeding effect in post-emergence stage, activity level (growth control rate), Abutilon theophrasti (Abutilon theophrasti): 5 (Level 5: growth control rate is above 85%)
weeding effect in post-emergence stage, activity level (growth control rate), Amaranthus retroflexus (Amaranthus retroflexus): 5 (Level 5: growth control rate is above 85%)

COc1c(C(=O)Nc2nnc(C)o2)ccc(C(F)(F)F)c1[S@+]([O-])CCC#N [Compound 338]
weeding effect in post-emergence stage, activity level (growth control rate), Echinochloa crusgali (Echinochloa crusgali): 5 (Level 5: growth control rate is above 85%)
weeding effect in post-emergence stage, activity level (growth control rate), Digitaria sanguinalis (Digitaria sanguinalis): 5 (Level 5: growth control rate is above 85%)
weeding effect in post-emergence stage, activity level (growth control rate), Setaria viridis (Setaria viridis): 5 (Level 5: growth control rate is above 85%)
weeding effect in post-emergence stage, activity level (growth control rate), Abutilon theophrasti (Abutilon theophrasti): 5 (Level 5: growth control rate is above 85%)
weeding effect in post-emergence stage, activity level (growth control rate), Amaranthus retroflexus (Amaranthus retroflexus): 5 (Level 5: growth control rate is above 85%)

COc1c(C(=O)Nc2nnc(C)o2)ccc(C(F)(F)F)c1[S@+]([O-])CCCN [Compound 339]
weeding effect in post-emergence stage, activity level (growth control rate), Echinochloa crusgali (Echinochloa crusgali): 5 (Level 5: growth control rate is above 85%)
weeding effect in post-emergence stage, activity level (growth control rate), Digitaria sanguinalis (Digitaria sanguinalis): 5 (Level 5: growth control rate is above 85%)
weeding effect in post-emergence stage, activity level (growth control rate), Setaria viridis (Setaria viridis): 5 (Level 5: growth control rate is above 85%)
weeding effect in post-emergence stage, activity level (growth control rate), Abutilon theophrasti (Abutilon theophrasti): 5 (Level 5: growth control rate is above 85%)
weeding effect in post-emergence stage, activity level (growth control rate), Amaranthus retroflexus (Amaranthus retroflexus): 5 (Level 5: growth control rate is above 85%)

COc1c(C(=O)Nc2nnc(C)o2)ccc(C(F)(F)F)c1[S@+]([O-])CCN(C)C [Compound 340]
weeding effect in post-emergence stage, activity level (growth control rate), Echinochloa crusgali (Echinochloa crusgali): 5 (Level 5: growth control rate is above 85%)
weeding effect in post-emergence stage, activity level (growth control rate), Digitaria sanguinalis (Digitaria sanguinalis): 5 (Level 5: growth control rate is above 85%)
weeding effect in post-emergence stage, activity level (growth control rate), Setaria viridis (Setaria viridis): 5 (Level 5: growth control rate is above 85%)
weeding effect in post-emergence stage, activity level (growth control rate), Abutilon theophrasti (Abutilon theophrasti): 5 (Level 5: growth control rate is above 85%)
weeding effect in post-emergence stage, activity level (growth control rate), Amaranthus retroflexus (Amaranthus retroflexus): 5 (Level 5: growth control rate is above 85%)

COc1c(C(=O)Nc2nnc(C)o2)ccc(C(F)(F)F)c1[S@+]([O-])CC(=O)O [Compound 341]
weeding effect in post-emergence stage, activity level (growth control rate), Echinochloa crusgali (Echinochloa crusgali): 5 (Level 5: growth control rate is above 85%)
weeding effect in post-emergence stage, activity level (growth control rate), Digitaria sanguinalis (Digitaria sanguinalis): 5 (Level 5: growth control rate is above 85%)
weeding effect in post-emergence stage, activity level (growth control rate), Setaria viridis (Setaria viridis): 5 (Level 5: growth control rate is above 85%)
weeding effect in post-emergence stage, activity level (growth control rate), Abutilon theophrasti (Abutilon theophrasti): 5 (Level 5: growth control rate is above 85%)
weeding effect in post-emergence stage, activity level (growth control rate), Amaranthus retroflexus (Amaranthus retroflexus): 5 (Level 5: growth control rate is above 85%)
